Assay results published in patent publication US4246263A, “Antiinflammatory and immunoregulatory pyrimidines, their method of use and pharmaceutical compositions” (priority 1979, dated 1981).
Like-named read-outs stand apart in the source and are kept apart here.

Tests used:
[1] = test system: azathioprine-sensitive, rosette-forming cells; test: mouse E-rosette procedure (restoration of azathioprine-sensitive rosette-forming cells in adult thymectomized mice); format: in vivo, mouse (CD-1
Method: (§1) Antiinflammatory activity is reflected in the so-called rat foot edema test, in which the ability of an oral dose of the compound to inhibit an inflammatory reaction is measured, while immunoregulatory activity is assessed by the so-called mouse E-rosette procedure in which the ability of the test compound to restore erythrocyte rosette formation in thymectomized mice is measured. These tests are described in greater detail below.
As mentioned above, the immunoregulatory activity of the compounds of this invention is assessed by the mouse E-rosette procedure. In the mouse, the presence of a thymus is required for full expression of normal rosette formation with sheep erythrocytes [see for example, Bach and Dardenne, Immunol. 25, 353 (1973)]. The procedure examines the ability of a drug to restore azathioprine-sensitive, rosette-forming cells in adult thymectomized mice to the levels of normal animals. Specifically, rosette formation is examined in CD-1 mice thymectomized at 4 weeks of age and left at least 14 days post-surgery before manipulation (ATX mice). The ATX mice are dosed orally either with saline vehicle or drug. Sixteen hours later, single cell suspensions are prepared in Hanks balanced salt solution (HBSS) from the pooled spleens of three mice. To each tube is added 0.1 ml of lymphocytes (6×10^7 /ml) in HBSS and either 0.1 ml of HBSS or 0.1 ml of 40 μg/ml azathioprine in HBSS. After 90 minutes incubation at 37° C., the cells are washed 2× with 5 ml. of HBSS, made back up to 0.2 ml, and 0.2 ml of sheep red blood cells (erythrocytes) at 1.2×10^8 cells/ml. added. Then […] on hemagglutination slides and the number of rosettes counted. The ability of the test compound to restore the number of azathioprine sensitive rosetting cells to normal or higher is determined. In normal mice 42%±12% azathioprine sensitivity is found. In adult thymectomized mice 3±3% azathioprine sensitivity is found.

[2] = acute toxicity in the rat; format: in vivo; conditions: rat, in vivo, po
Method: (§2) Its oral LD50 in mice is greater than 100 mg./kg. In the rat, it also has an LD50 value greater than 1000 mg./kg. […] No changes in clinical chemistry, hematology or body weight were observed.

rat = test: acute toxicity in the rat; format: in vivo; conditions: rats
Method: as §2

[3] = test system: humoral immune response to sheep red blood cells; test: humoral immune response of mice to sheep red blood cells; format: in vivo; conditions: for effect on humoral immune response to sheep red blood cells (immunosuppressive drugs): same conditions, dose of the drugs not given
[4] = test system: carrageenin-induced rat foot edema; test: carrageenin-induced rat foot edema test; format: in vivo, rat (male albino)
Method: as §1
As mentioned above, the antiinflammatory activity of the compounds of the present invention is determined in the standard carrageenin-induced rat foot edema test [described by C. A. Winter et al., Proc. Soc. Exp. Biol. 111, p. 544 (1962)]. In this test, antiinflammatory activity is determined as the inhibition of edema formation in the hind paw of male albino rats (weight 150-190 g.) in response to a subplantar injection of carrageenin. The carrageenin is injected as a 1 percent aqueous suspension (0.05 ml.) 1 hour after oral administration of the drug. Edema formation is then assessed 3 hours after the carrageenin injection by measuring the volume of the injected paw initially as well as at the 3 hour mark. The increase in volume three hours after carrageenin injection constitutes the individual response. Compounds are considered active if the response between the drug-treated animals (six rats/group) and the control group (i.e., animals receiving the vehicle alone) is deemed to be significant on comparison with results afforded by standard compounds like acetylsalicylic acid at 100 mg./kg […] phenylbutazone at 33 mg./kg., both by the oral route of administration. The activity of the compound under test is expressed as the % inhibition of edema at a given oral dose. The ability of compounds to inhibit edema at various oral dosages (mg./kg., i.e. mg. of drug/kg. of rat body weight) is shown in Table II.

[5] = test system: polyarthritis produced by injection of complete Freund's adjuvant; test: polyarthritis produced by injection of complete Freund's adjuvant in Wistar-Lewis rats; format: in vivo, rat (Wistar-Lewis); conditions: for effect on weight loss induced by adjuvant disease: rat, in vivo; for suppression of primary and secondary responses: reference NSAI drugs, dose not given
Description: This pattern of antiarthritic activity again distinguishes 4-(2-hydroxyethylthiomethyl)pyridine /from the classical NSAI drugs.

[6] = test system: ultraviolet light induced erythema; test: ultraviolet light induced erythema procedure; format: in vivo; conditions: for suppression of erythema (NSAI drugs): ultraviolet light induced erythema, dose not given
[7] = test system: prostaglandin synthesis in MC5-5 cells; test: prostaglandin synthesis in MC5-5 cells in vitro; format: cell-based; conditions: read-out: IC50, inhibition of prostaglandin synthesis in MC5-5 cells
mice = test: acute oral toxicity in mice; format: in vivo
Method: as §2

water solubility = format: physicochemical; conditions: dihydrogen phosphate salt
rats = conditions: oral
[8] = oral dosage of 1 mg./kg., thymectomized mice
[9] = oral dosage of 33 mg./kg., 3 hours after carrageenin

## CC(O)C(C)SCc1ccncc1 (stereo not shown)
[1]; [8]
  % Rosetting Cells: 63%

## Oc1ccccc1SCc1ccncc1
[1]; [8]
  % Rosetting Cells: 59%

## OCC(SCc1ccncc1)c1ccccc1 (stereo not shown)
[1]; [8]
  % Rosetting Cells: 33%

## OC(CSCc1ccncc1)c1ccccc1 (stereo not shown)
[1]; oral, 10 mg./kg.
  % Rosetting Cells: 50%

## COc1ccc(C(O)CSCc2ccncc2)cc1 (stereo not shown)
[1]; [8]
  % Rosetting Cells: 43%

## O=[N+]([O-])c1ccc(C(O)CSCc2ccncc2)cc1 (stereo not shown)
[1]; [8]
  % Rosetting Cells: 40%

## CC(SCc1ccncc1)C(O)c1ccccc1 (stereo not shown)
[1]; [8]
  % Rosetting Cells: 33%

## CC(C)(O)CSCc1ccncc1
[1]; [8]
  % Rosetting Cells: 39%

## OCCSCc1ccncc1 [4-(2-Hydroxyethylthiomethyl)pyridine]
[2]
  LD50: > 1000 mg/kg
rat
  acute toxicity relative to levamisole: less acutely toxic than levamisole
[3]; four daily oral doses, 33 mg./kg.
  effect on humoral immune response to sheep red blood cells: did not affect the humoral immune response
[4]; [9]
  % Inhibition of Edema: 52%
[4]; oral, 3.3 mg./kg.
  % Inhibition of Edema: 16%
[4]; oral, 10 mg./kg.
  % Inhibition of Edema: 29%
[5]; Rattus norvegicus, po
  ED50: ~33 mg/kg
[5]; day 4 or day 16
  effect on the rapid onset, acute inflammation of the adjuvant-injected foot: no effects
[5]; p.o.
  antiarthritic effect on the secondary response (spread of disease to the uninjected foot): selective for the slow onset, lymphoid cell mediated, secondary response
  protection from adjuvant polyarthritis: dose-related protection
[5]
  effect on weight loss induced by adjuvant disease: does not affect the weight loss
[6]; 33 mg./kg. p.o.
  activity in ultraviolet light induced erythema procedure: lack of activity
[7]
  IC50: > 100 µM
mice; mice
  acute toxicity relative to levamisole: less acutely toxic than levamisole
mice; mouse, in vivo, po
  LD50: greater than 100 mg./kg.
[1]; oral, 0.01 mg./kg.
  % Rosetting Cells: 16%

## O=P(O)(O)O.OCCSCc1ccncc1 [4-(2-hydroxyethylthiomethyl)pyridinium dihydrogen phosphate]
Water solubility
  water solubility: excellent water solubility

## OCCSCc1ccncn1 [4-(2-hydroxyethylthiomethyl)pyrimidine, 4-(2-Hydroxyethylthiomethyl)pyrimidine]
[4]; [9]
  % Inhibition of Edema: 11%
[1]; oral dosage of 1 mg./kg., pyrimidine
  restoration of rosette formation: 38%

## Sc1ncnc2nc[nH]c12 [6-mercaptopurine]
[3]
  effect on humoral immune response to sheep red blood cells (immunosuppressive drugs): profoundly inhibitory

## OCCCSCc1ccncc1 [CH2 CH2 CH2, H, 1, 4-(3-Hydroxypropylthiomethyl)pyridine]
[1]; [8]
  % Rosetting Cells: 36%

## COCCSCc1ccncc1 [CH2 CH2, CH3, 1, 4-(2-Methoxyethylthiomethyl)pyridine]
[1]; [8]
  % Rosetting Cells: 33%

## OCCSCCc1ccncc1 [CH2 CH2, H, 2, 4-[2-(2-Hydroxyethylthio)ethyl]pyridine]
[1]; [8]
  % Rosetting Cells: 50%

## CC(=O)OCCSCc1ccncc1 [CH2 CH2, drawing 27, 1, 4-(2-Acetoxyethylthiomethyl)pyridine]
[1]; [8]
  % Rosetting Cells: 40%

## CN1C(C(=O)Nc2ccccn2)=C(O)c2ccccc2S1(=O)=O [Piroxicam, reference compound]
[5]
  effect on weight loss induced by adjuvant disease: partially preventing the weight loss
  suppression of primary and secondary responses: effective in suppressing both the primary and secondary responses

## CC(=O)Oc1ccccc1C(=O)O [aspirin, acetylsalicylic acid]
rats; 50 mg./kg.
  ulcerogenic effects: distinct ulcerogenic effects

## Cn1cnc([N+](=O)[O-])c1Sc1ncnc2nc[nH]c12 [azathioprine]
[3]
  effect on humoral immune response to sheep red blood cells (immunosuppressive drugs): profoundly inhibitory

## O=P1(N(CCCl)CCCl)NCCCO1 (stereo not shown) [cyclophosphamide]
[3]
  effect on humoral immune response to sheep red blood cells (immunosuppressive drugs): profoundly inhibitory

## OCC(O)CSCc1ccncc1 (stereo not shown) [drawing 17]
[1]; [8]
  % Rosetting Cells: 57%

## CC(CO)SCc1ccncc1 (stereo not shown) [drawing 19]
[1]; [8]
  % Rosetting Cells: 40%

## CC(O)CSCc1ccncc1 (stereo not shown) [drawing 21]
[1]; [8]
  % Rosetting Cells: 56%

## OCC(O)CSCc1ccncc1 (stereo not shown) [drawing 29]
[4]; [9]
  % Inhibition of Edema: 17%

## CC(CO)SCc1ccncc1 (stereo not shown) [drawing 30]
[4]; [9]
  % Inhibition of Edema: 20%

## CC(O)CSCc1ccncc1 (stereo not shown) [drawing 31]
[4]; [9]
  % Inhibition of Edema: 5%

## COc1ccc2c(c1)c(CC(=O)O)c(C)n2C(=O)c1ccc(Cl)cc1 [indomethacin]
[6]
  suppression of erythema (NSAI drugs): clearcut suppression of erythema
rats; 10 mg./kg.
  ulcerogenic effects: distinct ulcerogenic effects

## CN(Cc1cnc2nc(N)nc(N)c2n1)c1ccc(C(=O)N[C@@H](CCC(=O)O)C(=O)O)cc1 [methotrexate]
[3]
  effect on humoral immune response to sheep red blood cells (immunosuppressive drugs): profoundly inhibitory

## CCCCC1C(=O)N(c2ccccc2)N(c2ccccc2)C1=O [phenylbutazone, reference compound]
[5]
  effect on weight loss induced by adjuvant disease: partially preventing the weight loss
  suppression of primary and secondary responses: effective in suppressing both the primary and secondary responses
[6]
  suppression of erythema (NSAI drugs): clearcut suppression of erythema
